Read-outs that look alike come from different tables or passages of the source.
Columns and labels:
[1] = system: rat uterus (uterine cornuae); experiment: Uterine relaxant activity, inhibition of spontaneous contractions of the isolated uterus (De Jalon method); parameters: species or system rat (Sprague Dawley); settings: 0.5 γ/ml of bath; for uterine relaxant effect: in words
Procedure: The study was conducted on rat uterus, using the following compounds:
The conventional method of De Jalon, Bayo and De Jalon (1945). Farmacoter. act. 3, 313 -- also reported in the book : "Pharmacological Experiments on Isolated Preparations" by the staff of the Department of Pharmacology, University of Edinburgh, published by E. & S. Livingstone Ltd, London -- was used, the pharmacological investigation being conducted on the uterine cornuae of female rats (Sprague Dawley strain) kept alive in a survival liquid.
A tank containing Tyrode's solution is maintained at a constant temperature of 32°C. The test organ is suspended to a strain gauge for the purpose of recording the contractions on a potentiometric recorder. The uterine cornuae are taken from non-gravid puberal female rats having an average weight of 160 g.
The day prior to the test, the animals are administered a di-ethyl-stilboestrol injection. Postmortem, the cornuae are isolated as rapidly as possible and a 15 mm fragment from which the connective tissue has been removed is placed in the experimental cell.
During oestrum, regular spontaneous contractions (FIG. 1) are noted; such oscillations are stable within 30-60 minutes, after washing several times with suitably oxygenated Tyrode's solution.
Addition to the bath of uterine relaxant material produces, at a low dosage, a total inhibition of such spontaneous contractions.

duodenum of rats = experiment: Beta-stimulant action, inhibition of acetylcholine-induced contraction of isolated duodenum; parameters: species or system rat (Sprague Dawley); settings: 0.1 γ/ml of bath; for % Inhibition of cholinergic contraction (beta-stimulant action): acetylcholine 0.1 γ/ml; for beta-stimulant action: in words
Procedure: A comparison was made of the beta-stimulant action of the same compounds as used in the above experiment.
The duodenum of rats (Sprague Dawley strain) weighing about 150 g is taken immediately post-mortem. The test organ is immediately placed in a suitable cell for the isolated organ (oxygenated Tyrode's solution maintained at a temperature of 37°C).
Addition of acetylcholine (0.1 γ/ml) to the bath induces a contraction of the organ which is immediately transmitted via a strain gauge to a potentiometric recording device.
Addition of a beta-stimulant material causes inhibition of this […].
A comparison was made between the actions of various materials on cholinergic contractions.

[2] = system: isolated heart (coronary rate of flow); experiment: Coronary dilator activity, Langendorff's method on the isolated heart; parameters: species or system rabbit (Fauve de Bourgogne); ED 50: unit not given beside the values; settings: for activation at 0.005 mg: 5 γ injected; for activation at 0.01 mg: 10 γ injected; for activation at 0.02 mg: 20 γ injected; for activation at 0.04 mg: 40 γ injected; for activation at 0.08 mg: 80 γ injected; for ED 50: 50% increase of original coronary rate of flow; for activation at 0.16 mg: 160 γ injected; for activation at 0.025 mg: 25 γ injected; for activation at 0.05 mg: 50 γ injected
Procedure: The coronary dilator activity was studied according to Langendorff's method on the isolated heart.
The tests were carried out on the hearts of young Fauve de Bourgogne (about 1.5 kg) rabbits. The hearts were rapidly taken out and maintained in surviving condition by perfusion of a physiological (Tyrode type) liquid heated at 37°C and oxygenated under a constant pressure of 50-60 cm of water. The heart was perfused countercurrently.
Volumetric determinations of the coronary rate of flow were then recorded at thirty second intervals.
After stabilization of the basic rate of flow, the test compound, dissolved in physiological saline solution, was injected in the perfusion liquid, in a volume of from 0.05 to 0.2 ml.
In the same heart, increasing dosages of all three compounds were tested by injecting alternatively a predetermined dose for each one of the three compounds.
Each injection was made 4-5 minutes after a stable rate of flow was attained.
The tests were carried out as above with three rabbits.

patients = experiment: Clinical experiments in patients with anginose states or ischemic diseases of the heart; type: in vivo, human
Procedure: The compound prepared in example 4 (1-(1-hydroxypropyl)-4-[2-(1-methyl-phenethylamino)-ethoxy]-benzene hydrochloride) was experimented in four different Cardiology Services. 211 patients were treated with this compound. These patients suffered from different anginose states or from ichemic diseases of the heart (coronary failures or after-effects of infarct). […] Therefore the tolerance is excellent.

[3] = cited from earlier work
beta receptor = settings: International Conference on Duvadilan, May 1962; cited from earlier work
uterus = settings: in words; cited from earlier work
[4] = compared to Isoxsuprine; cited from earlier work
[5] = Oryctolagus cuniculus, Table I, heart A, read-out: increase of coronary rate of flow
[6] = Oryctolagus cuniculus, Table I, heart B, read-out: increase of coronary rate of flow
[7] = Oryctolagus cuniculus, Table II, heart No. 1, read-out: increase of coronary rate of flow
[8] = Oryctolagus cuniculus, Table II, heart No. 2, read-out: increase of coronary rate of flow
[9] = Oryctolagus cuniculus, Table II, heart No. 3, read-out: increase of coronary rate of flow

| SMILES | % Inhibition of spontaneous uterine contractions [1] [%] | uterine relaxant effect [1] | % Inhibition of cholinergic contraction (beta-stimulant action) (duodenum of rats) [%] | beta-stimulant action (duodenum of rats) | activation at 0.005 mg [2, 5] [%] | activation at 0.01 mg [2, 5] [%] | activation at 0.02 mg [2, 5] [%] | activation at 0.04 mg [2, 5] [%] | activation at 0.01 mg [2, 6] [%] | activation at 0.02 mg [2, 6] [%] | activation at 0.04 mg [2, 6] [%] | activation at 0.08 mg [2, 6] [%] | ED 50 ([2]; Table I, heart A) | ED 50 ([2]; Table I, heart B) | activation at 0.04 mg [2, 7] [%] | activation at 0.08 mg [2, 7] [%] | activation at 0.16 mg [2, 7] [%] | activation at 0.02 mg [2, 8] [%] | activation at 0.04 mg [2, 8] [%] | activation at 0.04 mg [2, 9] [%] | other results |
| --- | --- | --- | --- | --- | --- | --- | --- | --- | --- | --- | --- | --- | --- | --- | --- | --- | --- | --- | --- | --- | --- |
| CC(COc1ccccc1)NC(C)C(O)c1ccccc1 (centres unmarked) [Compound D, reference compound] | 70 | reduced uterine relaxant effect | 100 | highly beta-stimulant action |  |  |  |  |  |  |  |  |  |  |  |  |  |  |  |  |  |
| CCC(=O)c1ccc(OCCNC(C)Cc2ccccc2)cc1 (centres unmarked) [Example 1, 4-[2-(1-methyl-phenethylamino)-ethoxy]-propiophenone] | 0 | absolutely no uterine relaxant effect | 15 | only a slight beta-stimulant effect | 12 | 34 | 47 | 50 | 8 | 37 | 50 | 62 | 27 γ | 44 γ |  |  |  |  |  |  | activation at 0.08 mg [2, 5]: 80.5% |
| CCC(O)c1ccc(OCCNC(C)Cc2ccccc2)cc1 (centres unmarked) [Example 4, 1-(1-hydroxy-propyl)-4[2-(1-methyl-phenethylamino)-ethoxy]-benzene] | 0 | absolutely no uterine relaxant effect | 15 | only a slight beta-stimulant effect | 30 | 33 | 67 | 93 | 11 | 30 | 55 | 78 | 11 γ | 35 γ | 33 | 54 | 78 | 50 | 80 | 46 | contra-indication (patients; 211 patients): no contra-indication; modification of cardiac frequency and arterial pressure (patients; 211 patients): no modification of the cardiac frequency and of the arterial pressure; tolerance (patients; 211 patients): excellent; favourable results (number of patients) (patients; 211 patients treated): 172 patients; favourable results (share of patients) (patients; 211 patients treated): 81.5%; activation at 0.002 mg ([2]; Oryctolagus cuniculus, Table I, heart A, 2 γ injected, read-out: increase of coronary rate of flow): 10%; activation at 0.01 mg [2, 8]: 33%; activation at 0.02 mg [2, 9]: 17%; activation at 0.08 mg [2, 9]: 50%; activation at 0.16 mg [2, 9]: 75% |
| CCCC(=O)c1ccc(OCCNC(C)Cc2ccccc2)cc1 (centres unmarked) [Example 5, 4-[2-(1-methyl-phenethylamino)-ethoxy]-butyrophenone] |  |  |  |  |  | 21 |  |  | 16 |  |  |  | 24 γ | 45 γ |  |  |  |  |  |  | activation at 0.025 mg [2, 5]: 57%; activation at 0.05 mg [2, 5]: 64%; activation at 0.025 mg [2, 6]: 39%; activation at 0.05 mg [2, 6]: 50% |
| CC(COc1ccccc1)NC(C)C(O)c1ccc(O)cc1 (centres unmarked) [Isoxsuprine, 1-(p-hydroxyphenyl)-2-(1-methyl-2 phenoxyethylamino) propanol-1, reference compound] | 100 | total uterine relaxant action | 100 | highly beta-stimulant action |  |  |  |  |  |  |  |  |  |  | 8 | 20 | 50 | 17 | 43 | 0 | ventricular stimulability ([3]; in view of beta-stimulant properties): increases ventricular stimulability; possible occurrence of extrasystoles ([3]; particularly ventricular extrasystoles): increases also the possible occurrence of extrasystoles; mechanism of uterine relaxant activity (beta receptor): essentially due to beta receptor activation; activation at 0.08 mg [2, 8]: 60%; activation at 0.08 mg [2, 9]: 17%; activation at 0.16 mg [2, 9]: 33%; activation at 0.32 mg ([2]; Oryctolagus cuniculus, Table II, heart No. 3, 320 γ injected, read-out: increase of coronary rate of flow): 50%; activation at 0.64 mg ([2]; Oryctolagus cuniculus, Table II, heart No. 3, 640 γ injected, read-out: increase of coronary rate of flow): 75% |
| CC(COc1ccccc1)NC(C)Cc1ccccc1 (centres unmarked) [N-(2-phenyl-1-methyl-ethyl)-2-phenoxy-1-methyl-ethylamine] |  |  |  |  |  |  |  |  |  |  |  |  |  |  |  |  |  |  |  |  | uterus relaxant activity (uterus): uterus relaxants; vasodilator activity [4]: reduced vasodilator activity compared to Isoxsuprine |

— patent US3959359A, “Phenoxyalkylamines, process for their preparation and therapeutical composition containing same” (priority 1968, dated 1976)
